pIC50: −log10 of the molar value. Where two headings read alike, the source gives them in different places.
Target: T1, Human ATX protein (Homo sapiens, UniProt Q13822)
T1 construct: made in house
Test: ATX biochemical FRET assay with FS-3 substrate
Details: FS-3 2 μM, ATX 1.0 μg/mL
Source text: ATX (Autotaxin) is a 125 KDa glycoprotein with lysophospholipase D (LPLD) activity that generates the bioactive lipid lysophosphatidic acid (LPA) from lysophosphatidylcholine (LPC). The ATX biochemical assay utilizes a FRET (fluorescence resonance energy transfer) technology platform. The fluorescence signal of FRET substrate FS-3 is quenched due to intra-molecular FRET of a fluorophore to a non-fluorescing quencher (Ferguson, C. G., et al., Org. Lett. 2006 May 11; 8(10): 2023-2026, which is incorporated by reference in its entirety). ATX catalyzes the hydrolysis of the substrate which separates the dabsyl quencher from the fluorescein reporter, which becomes fluorescent. The reaction is monitored by a SpectraMax M5 (Molecular Devices, Sunnyvale, Calif.) with at excitation wavelength 485 nm and emission wavelength 535 nm.
2×ATX assay buffer: 100 mM Tris, 280 mM NaCl, 10 mM KCl, 2 mM CaCl2, 2 mM MgCl2, pH 7.4.
Human ATX protein: expressed and purified in house. Stored at −80° C.
Substrate FS-3 (Echelon, L-2000): 100 μg in 77.74 μL H2O (1 mM stock), stored at −20° C.
Compound dilution—All compounds were provided at 10 mM in 100% DMSO. In the first well, 2 μL of 10 mM compound was added to 78 μL of DMSO (1:40 dilution). In subsequent wells 3-fold dilution (total 10 dilutions) were performed.
1×ATX assay buffer was made up with a final concentration of 1 mg/mL fatty acid free-BSA using 2×ATX assay buffer, 10 mg/ml fatty acid free-BSA and ddH2O.
ATX protein was diluted with 1×ATX assay buffer to a concentration of 1.32 μg/mL (1.32×). 38 μL was added per well to the assay plate. The final concentration of ATX in the reaction as 1.0 μg/mL.
2 μL per well of compounds was transferred to provide the desired concentration. The plate was centrifuged, then incubated at room temperature for 30 minutes on the shaker.
FS-3 was diluted with 1×ATX assay buffer to a concentration of FS-3 of 10 μM (5×). Then, 10 μL was added per well to the assay plate. The final concentration of FS-3 in the reaction was 2 μM. The plate was centrifuged. The plate was kept shaking at room temperature for 2 hours. Because FS-3 substrate is light sensitive, plates were kept covered and protected from light.
Fluorescence was measured using SpectraMax M5 (excitation at 485 nm/emission at 538 nm, top read).

[1] = binned table, read-out: IC50 (μm)

pIC50 [1]	pIC50 (read-out: ATX IC50)	SMILES
5.30 to 6.30		C[C@H]1CC[C@@H](Oc2ccc3c(CN4CCC(C(=O)O)CC4)cccc3c2C(F)(F)F)CC1 [Example 1, 1-((6-((cis-4-methylcyclohexyl)oxy)-5-(trifluoromethyl)naphthalen-1-yl)methyl)piperidine-4-carboxylic acid]
> 6.30	≥ 6.60	C[C@H]1CC[C@@H](Oc2ccc3c(CN4CCC[C@H](CC(=O)O)C4)cccc3c2C(F)(F)F)CC1 [Example 4, 2-((R)-1-((6-((cis-4-methylcyclohexyl)oxy)-5-(trifluoromethyl)naphthalen-1-yl)methyl)piperidin-3-yl)acetic acid]
< 5.30		C[C@H]1CC[C@@H](Oc2ccc3c(CNC4(C(=O)O)CCCCC4)cccc3c2C(F)(F)F)CC1 [Example 5, 1-(((6-((cis-4-methylcyclohexyl)oxy)-5-(trifluoromethyl)naphthalen-1-yl)methyl)amino)cyclohexanecarboxylic acid]
5.30 to 6.30		C[C@H]1CC[C@@H](Oc2ccc3c(CNCC(=O)O)cccc3c2C(F)(F)F)CC1 [Example 6, 2-(((6-((cis-4-methylcyclohexyl)oxy)-5-(trifluoromethyl)naphthalen-1-yl)methyl)amino)acetic acid]
> 6.30		C[C@H]1CC[C@@H](Oc2ccc3c(CNCCC(=O)O)cccc3c2C(F)(F)F)CC1 [Example 7, 3-(((6-((cis-4-methylcyclohexyl)oxy)-5-(trifluoromethyl)naphthalen-1-yl)methyl)amino)propanoic acid]
> 6.30		C[C@H]1CC[C@@H](Oc2ccc3c(CNCCCC(=O)O)cccc3c2C(F)(F)F)CC1 [Example 8, 4-(((6-((cis-4-methylcyclohexyl)oxy)-5-(trifluoromethyl)naphthalen-1-yl)methyl)amino)butanoic acid]
5.30 to 6.30		C[C@H]1CC[C@@H](Oc2ccc3c(CNCCCCC(=O)O)cccc3c2C(F)(F)F)CC1 [Example 9, 5-(((6-((cis-4-methylcyclohexyl)oxy)-5-(trifluoromethyl)naphthalen-1-yl)methyl)amino)pentanoic acid]
> 6.30	≥ 6.60	C[C@H]1CC[C@@H](Oc2ccc3c(CNCCCCCC(=O)O)cccc3c2C(F)(F)F)CC1 [Example 10, 6-(((6-((cis-4-methylcyclohexyl)oxy)-5-(trifluoromethyl)naphthalen-1-yl)methyl)amino)hexanoic acid]
5.30 to 6.30		O=C(O)C1CCN(Cc2cccc3c(C(F)(F)F)c(O[C@H]4CC[C@@H](C(F)(F)F)CC4)ccc23)CC1 [Example 11, 1-((5-(trifluoromethyl)-6-((cis-4-(trifluoromethyl)cyclohexyl)oxy)naphthalen-1-yl)methyl)piperidine-4-carboxylic acid]
> 6.30	≥ 6.60	O=C(O)C[C@H]1CCCN(Cc2cccc3c(C(F)(F)F)c(O[C@H]4CC[C@@H](C(F)(F)F)CC4)ccc23)C1 [Example 14, 2-((R)-1-((5-(trifluoromethyl)-6-((cis-4-(trifluoromethyl)cyclohexyl)oxy)naphthalen-1-yl)methyl)piperidin-3-yl)acetic acid]
< 5.30		O=C(O)C1(NCc2cccc3c(C(F)(F)F)c(O[C@H]4CC[C@@H](C(F)(F)F)CC4)ccc23)CCCCC1 [Example 15, 1-(((5-(trifluoromethyl)-6-((cis-4-(trifluoromethyl)cyclohexyl)oxy)naphthalen-1-yl)methyl)amino)cyclohexanecarboxylic acid]
5.30 to 6.30		O=C(O)CNCc1cccc2c(C(F)(F)F)c(O[C@H]3CC[C@@H](C(F)(F)F)CC3)ccc12 [Example 16, 2-(((5-(trifluoromethyl)-6-((cis-4-(trifluoromethyl)cyclohexyl)oxy)naphthalen-1-yl)methyl)amino)acetic acid]
5.30 to 6.30		O=C(O)CCNCc1cccc2c(C(F)(F)F)c(O[C@H]3CC[C@@H](C(F)(F)F)CC3)ccc12 [Example 17, 3-(((5-(trifluoromethyl)-6-((cis-4-(trifluoromethyl)cyclohexyl)oxy)naphthalen-1-yl)methyl)amino)propanoic acid]
> 6.30		O=C(O)CCCNCc1cccc2c(C(F)(F)F)c(O[C@H]3CC[C@@H](C(F)(F)F)CC3)ccc12 [Example 18, 4-(((5-(trifluoromethyl)-6-((cis-4-(trifluoromethyl)cyclohexyl)oxy)naphthalen-1-yl)methyl)amino)butanoic acid]
5.30 to 6.30		O=C(O)CCCCNCc1cccc2c(C(F)(F)F)c(O[C@H]3CC[C@@H](C(F)(F)F)CC3)ccc12 [Example 19, 5-(((5-(trifluoromethyl)-6-((cis-4-(trifluoromethyl)cyclohexyl)oxy)naphthalen-1-yl)methyl)amino)pentanoic acid]
> 6.30	≥ 6.60	O=C(O)CCCCCNCc1cccc2c(C(F)(F)F)c(O[C@H]3CC[C@@H](C(F)(F)F)CC3)ccc12 [Example 20, 6-(((5-(trifluoromethyl)-6-((cis-4-(trifluoromethyl)cyclohexyl)oxy)naphthalen-1-yl)methyl)amino)hexanoic acid]
5.30 to 6.30		C[C@H]1CC[C@@H](Oc2ccc3cccc(CN4CCC(C(=O)O)CC4)c3c2C(F)(F)F)CC1 [Example 21, 1-((7-((cis-4-methylcyclohexyl)oxy)-8-(trifluoromethyl)naphthalen-1-yl)methyl)piperidine-4-carboxylic acid]
5.30 to 6.30		C[C@H]1CC[C@@H](Oc2ccc3cccc(CN4CCC[C@H](CC(=O)O)C4)c3c2C(F)(F)F)CC1 [Example 24, 2-((R)-1-((7-((cis-4-methylcyclohexyl)oxy)-8-(trifluoromethyl)naphthalen-1-yl)methyl)piperidin-3-yl)acetic acid]

SMILES	pIC50 [1]	pIC50 (read-out: ATX IC50)
C[C@H]1CC[C@@H](Oc2ccc3c(CN4C5CCC4CC(C(=O)O)C5)cccc3c2C(F)(F)F)CC1 (stereo partly drawn) [Example 2, 8-((6-((cis-4-methylcyclohexyl)oxy)-5-(trifluoromethyl)naphthalen-1-yl)methyl)-8-azabicyclo[3.2.1]octane-3-carboxylic acid]	5.30 to 6.30	
C[C@H]1CC[C@@H](Oc2ccc3c(CN4C5CCCC4CC(C(=O)O)C5)cccc3c2C(F)(F)F)CC1 (stereo partly drawn) [Example 3, 9-((6-((cis-4-methylcyclohexyl)oxy)-5-(trifluoromethyl)naphthalen-1-yl)methyl)-9-azabicyclo[3.3.1]nonane-3-carboxylic acid]	5.30 to 6.30	
O=C(O)C1CC2CCCC(C1)N2Cc1cccc2c(C(F)(F)F)c(O[C@H]3CC[C@@H](C(F)(F)F)CC3)ccc12 (stereo partly drawn) [Example 13, 9-((5-(trifluoromethyl)-6-((cis-4-(trifluoromethyl)cyclohexyl)oxy)naphthalen-1-yl)methyl)-9-azabicyclo[3.3.1]nonane-3-carboxylic acid]	5.30 to 6.30	
C[C@H]1CC[C@@H](Oc2ccc3cccc(CN4C5CCC4CC(C(=O)O)C5)c3c2C(F)(F)F)CC1 (stereo partly drawn) [Example 22, 8-((7-((cis-4-methylcyclohexyl)oxy)-8-(trifluoromethyl)naphthalen-1-yl)methyl)-8-azabicyclo[3.2.1]octane-3-carboxylic acid]	> 6.30	≥ 6.60
C[C@H]1CC[C@@H](Oc2ccc3cccc(CN4C5CCCC4CC(C(=O)O)C5)c3c2C(F)(F)F)CC1 (stereo partly drawn) [Example 23, 9-((7-((cis-4-methylcyclohexyl)oxy)-8-(trifluoromethyl)naphthalen-1-yl)methyl)-9-azabicyclo[3.3.1]nonane-3-carboxylic acid]	5.30 to 6.30	
